Measured values published in BindingDB's records for doi:10.1016/j.chembiol.2011.05.014 (The University of Chicago, 2011).

Biological target: T1, HTH-type transcriptional regulator MgrA (Staphylococcus aureus, UniProt P0C1S0)
T1 sequence (P0C1S0 whole entry): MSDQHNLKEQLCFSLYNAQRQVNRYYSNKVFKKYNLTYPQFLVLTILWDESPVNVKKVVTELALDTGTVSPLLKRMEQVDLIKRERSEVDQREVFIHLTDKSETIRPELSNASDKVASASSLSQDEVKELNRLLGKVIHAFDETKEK
Test: Biochemical Assay
Details: pH 7.4
Experimental: A fluorescence anisotropy (FA)-based biochemical assay that monitors MgrA-DNA binding. To determine the binding affinity of MgrA to the labeled DNA, different amounts of MgrA were added into the 96-well format plate.

In the case of `Cc1ccc(C)n1[C@@H](CC(=O)O)c1ccc2c(c1)OCO2` [MgrA inhibitor, 2], the IC50 is reported as 30 µM.
